The record followed here is patent US20100280004A1, “SMALL MOLECULE CORRECTORS OF DELTAF508 CFTR TRAFFICKING” (The University of British Columbia and The Royal …, priority 2007, published 2010).

Data set [1] concerns the target T1, ΔF508 CFTR (Homo sapiens, UniProt P13569, DEL508-508). Briefly: Screening protocol: surface expression of 3HA-tagged ΔF508 CFTR in BHK cells (anti-HA immunofluorescence plate assay). In kind it is cell-based. Details: expressed in transfected cells; host or cells: BHK cells. The settings on record: for EC50: concentrations between 100 μM and 1 pM, FIG. 2. How it is done: BHK cells expressing 3HA-tagged ΔF508 CFTR between passages 5-8 were seeded in 96-well plates (Corning half area, black-sided, clear bottom) at 15,000 cells per well and incubated with culture medium for 24 h at 37° C. […] The remaining 16 wells on each plate were used for control conditions. Cells were fixed in a 2% Para-formaldehyde solution, washed with PBS, and blocked with PBS containing 5% fetal bovine serum (FBS) for 1 h at 4° C.
Blocking solution was replaced with 15 μl of primary antibody solution containing 1% FBS and mouse monoclonal anti-HA antibody (1:150 dilution, Sigma) in PBS. The plates were sealed and left at 4° C. overnight. After three washes with 100 μl PBS, cells were incubated for 1 h with 15 μl of secondary antibody solution containing 1% FBS and anti-mouse IgG conjugated with FITC (1:100 dilution, Sigma) in PBS. Cells were again washed three times with 100 μl of PBS and analyzed in a plate reader (Analyst™ HT96.384, Biosystems) (488 nm excitation, 510 nm emission). Hits were defined as those compounds giving fluorescence at least three standard deviations higher than untreated controls. The mean fluorescence of four untreated wells was used as the background signal when calculating deviations of the 80 compound-treated wells. Hits were then cherry-picked into reservoir plates and re-tested in duplicate using the same assay. Compounds that consistently give signals that were three standard deviations above untreated controls and were not intrinsically fluorescent were considered validated and studied further.

A further data set concerns the target T2, F508del-CFTR (Homo sapiens, UniProt P13569, DEL508-508).
T2 construct: expressed in transfected cells; host or cells: BHK cells
Kind of data set: Immunofluorescence/confocal microscopy: cell surface CFTR (overlap with wheat germ agglutinin) in BHK cells expressing F508del-CFTR. In kind it is cell-based. Conditions: 10 μM, 24 hours, FIG. 3. How it is done:
BHK cells expressing F508del-CFTR were treated with 10 μM of the latonduines for 24 hours and then immunostained for CFTR and imaged by confocal microscopy (photomicrograph data not shown).
Cells were seeded onto 1 cm diameter glass coverslips (5000 per coverslip) and incubated overnight, then treated with compound and fixed in 2% Para formaldehyde. After fixation, cells were blocked using (5% FBS in PBS) for 1 hour at 4° C. The coverslips were then washed in PBS and incubated with primary antibody solution (1% FBS in PBS with 1:200 dilution mouse anti-CFTR antibody (Chemicon) for 2 hours at room temperature (0.05% Tween-20 was added to the blocking solution when staining of intracellular CFTR was required). Coverslips were washed four times in PBS and probed with secondary antibody solution (1% FBS in PBS plus goat anti-mouse Alexa 568 conjugated antibody at 1:1000 dilution) for 1 h at room temperature in the dark. The cells were then washed three times with PBS. The coverslips were then mounted on slides using an antifade mounting solution (Permamount) for confocal microscopy.
Analysis was done using the ImageJ system using 120-150 cells per sample in six fields. […]
The cell surface was identified using wheat germ agglutinin and the amount of cell surface CFTR measured (FIG. 3). […]

The test system of data set [2] is panel of human cancer lines. Kind of data set: Cytotoxicity assays against a panel of human cancer lines. In kind it is cell-based.
The next data set has as its system panel of protein kinases. Briefly: Enzyme inhibition against a panel of protein kinases. In kind it is biochemical.
For data set [3], the target named is T1, ΔF508 CFTR. Kind of data set: Immunoblotting analysis of biosynthetic processing of ΔF508-CFTR in BHK cells. In kind it is cell-based. On the set-up: expressed in transfected cells; host or cells: BHK cells. As to the method: The effects of the latonduines on the biosynthetic processing of ΔF508-CFTR, latonduine treatment was assayed by immunoblotting analysis (FIGS. 4A and B).
Cell lysates were quantitated by Bradford assay (BioRad) and separated by SDS-PAGE (6% polyacrylamide gels) and analyzed by Western blotting. Western blots were blocked using 5% skimmed milk in PBS, then were probed overnight at 4° C. with a primary anti-CFTR antibody at a dilution of 1:1000 monoclonal mouse antibody (Chemicon). The blots were washed four times in PBS before the addition of the secondary HRP-conjugated anti-mouse antibody, at a dilution of 1:5000 (Amersham) for one hour at room temperature. The blots were washed five times in PBS and probed for chemiluminescence (Pierce). All samples were run with equal protein loading as determined using the Bradford assay (Biorad). Densitometry of the immunoblots were performed using the ImageJ program.

The target in data set [4] is T1, ΔF508 CFTR. Briefly: Iodide efflux assay in CFBE cells expressing ΔF508-CFTR. Conditions: CFBE cells (human lung epithelia of a cystic fibrosis patient); FIG. 5B. Details: endogenous in cells; host or cells: CFBE cells (human lung epithelial cells from a CF patient). In kind it is cell-based. As to the method: Experiments were performed by hand or with a robotic liquid handling system (BioRobot 8000, Qiagen, USA) using Qiagen 4.1 software. Cells were cultured in 24-well plates until they reached confluence in order to perform parallel experiments and comparison analysis. After treatment or not with a test compound, the medium of each well was replaced with 1 ml of iodide loading buffer (in mM: 136 NaI, 3 KNO3, 2 Ca(NO3)2, 11 glucose and 20 Hepes pH 7.4) for 1 hour at 37° C. to permit the I− to reach equilibrium. At the beginning of each experiment, the loading buffer was removed by aspiration and cells were washed eight times with efflux buffer (same as loading buffer except that NaI was replaced with 136 mM NaNO3) to remove extracellular I^− in each well. The loss of intracellular I^− was determined by removing the medium with efflux buffer every 1 min for up to 11 min. The first four aliquots were recovered at 1-minute intervals in an empty 24-well plate and used to establish a stable baseline in efflux buffer alone. […] The iodide concentration of each aliquot was determined using an iodide-sensitive electrode (Orion Research Inc., Boston, Mass., USA or Ecomet) and converted to iodide content (i.e. the amount of iodide released during the 1 min interval). […]

What is called EC50 is the midpoint of the concentration-response curve. Read a low EC50 as greater potency.

T1 sequence (P13569 with tags, fused parts or gaps DEL508-508): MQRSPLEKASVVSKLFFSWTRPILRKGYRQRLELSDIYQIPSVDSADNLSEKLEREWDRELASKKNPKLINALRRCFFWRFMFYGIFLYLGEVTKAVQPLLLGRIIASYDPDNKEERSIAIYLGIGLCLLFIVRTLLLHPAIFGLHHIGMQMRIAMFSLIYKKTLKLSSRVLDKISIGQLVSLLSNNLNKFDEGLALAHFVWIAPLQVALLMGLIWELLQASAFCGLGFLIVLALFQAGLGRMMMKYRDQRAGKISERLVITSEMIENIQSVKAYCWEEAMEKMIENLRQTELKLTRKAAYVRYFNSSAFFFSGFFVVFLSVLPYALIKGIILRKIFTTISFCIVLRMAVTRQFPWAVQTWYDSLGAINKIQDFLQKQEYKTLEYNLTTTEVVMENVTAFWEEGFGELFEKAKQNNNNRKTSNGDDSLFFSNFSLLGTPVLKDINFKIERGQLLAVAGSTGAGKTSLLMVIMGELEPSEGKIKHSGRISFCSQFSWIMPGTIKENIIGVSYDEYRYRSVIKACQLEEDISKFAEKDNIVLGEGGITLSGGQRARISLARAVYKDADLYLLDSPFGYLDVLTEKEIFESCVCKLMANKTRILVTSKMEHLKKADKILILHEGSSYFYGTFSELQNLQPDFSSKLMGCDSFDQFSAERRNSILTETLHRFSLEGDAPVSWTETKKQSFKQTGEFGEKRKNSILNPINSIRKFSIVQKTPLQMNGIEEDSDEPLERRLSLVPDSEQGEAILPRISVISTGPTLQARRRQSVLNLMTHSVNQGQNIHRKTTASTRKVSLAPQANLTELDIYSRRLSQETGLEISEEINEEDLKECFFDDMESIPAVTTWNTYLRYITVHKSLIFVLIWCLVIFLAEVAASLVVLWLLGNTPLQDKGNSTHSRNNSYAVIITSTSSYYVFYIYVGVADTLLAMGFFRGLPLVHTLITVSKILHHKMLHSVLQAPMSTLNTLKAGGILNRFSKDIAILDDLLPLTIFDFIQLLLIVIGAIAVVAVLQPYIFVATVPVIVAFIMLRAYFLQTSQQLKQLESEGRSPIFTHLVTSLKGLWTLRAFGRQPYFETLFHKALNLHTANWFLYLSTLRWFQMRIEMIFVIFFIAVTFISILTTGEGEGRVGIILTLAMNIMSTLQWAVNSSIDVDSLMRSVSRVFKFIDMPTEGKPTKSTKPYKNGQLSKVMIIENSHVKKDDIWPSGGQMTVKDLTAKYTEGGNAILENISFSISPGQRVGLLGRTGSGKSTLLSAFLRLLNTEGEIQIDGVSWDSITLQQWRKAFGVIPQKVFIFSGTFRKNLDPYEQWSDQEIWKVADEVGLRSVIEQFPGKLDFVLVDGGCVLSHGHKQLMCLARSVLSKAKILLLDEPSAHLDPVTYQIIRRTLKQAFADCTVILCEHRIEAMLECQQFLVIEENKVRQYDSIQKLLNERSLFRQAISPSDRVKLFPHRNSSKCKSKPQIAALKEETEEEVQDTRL
T2 sequence (P13569 with tags, fused parts or gaps DEL508-508): as above

Turning to `Nc1ncc2c(n1)-c1c([nH]c(Br)c1Br)C(=O)NC2` [isolatonduine], the “response in the screening protocol (surface expression of ΔF508 CFTR)” value at ΔF508 CFTR [1] (24-hour treatment, 10 μM, FIGS. 1 and 6) is reported as “positive response”.

As to `Nc1ncc2c(n1)CNC(=O)c1[nH]c(Br)c(Br)c1-2` [latonduine A], the “cell surface CFTR, % of the amount of wild-type CFTR plasma membrane signal” value on F508del-CFTR is 29%. In addition, the cytotoxicity entry in data set [2] was “inactive”. Moreover, the enzyme inhibition entry in the data set with panel of protein kinases is “inactive”. The same compound gave a concentration giving a half-maximal response (EC50) at ΔF508 CFTR [1] of 0.4 nM. The “surface expression, % of that observed in cells expressing wild-type CFTR” value on ΔF508 CFTR [3] (F508del-CFTR, stated in Example III) is on record as “about 25%”. Besides, the “share of F508del-CFTR that was complex-glycosylated” value on ΔF508 CFTR [3] (cells treated with the compound, densitometry of immunoblot) is “Up to 30%”.

Take `CCOC(=O)c1nc(N)nc2c1-c1c([nH]c(Br)c1Br)C(=O)NC2` [latonduine B ethyl ester]: the “cell surface CFTR, % of the amount of wild-type CFTR plasma membrane signal” value on F508del-CFTR stood at 51%. Further, the cytotoxicity entry in data set [2] is “inactive”. In addition, the enzyme inhibition entry in the data set with panel of protein kinases was “inactive”. The same compound gave an EC50 at ΔF508 CFTR [1] of 0.5 nM. For the same compound, the “functional ΔF508-CFTR ion channels, iodide efflux” value on ΔF508 CFTR [4] was “can act as correctors of ΔF508-CFTR giving functional ion channels on the cell surface”.

`COC(=O)c1nc(N)nc2c1-c1c([nH]c(Br)c1Br)C(=O)NC2` [latonduine B methyl ester]: in data set [2], the cytotoxicity entry is “inactive”. In addition, the enzyme inhibition result in the data set with panel of protein kinases was “inactive”. Besides, the EC50 at ΔF508 CFTR [1] amounted to 25 nM.

Turning to `Nc1nc2c(c(C(=O)O)n1)-c1c([nH]c(Br)c1Br)C(=O)NC2` [latonduine B], in data set [2], the cytotoxicity entry is “inactive”. Moreover, in the data set with panel of protein kinases, the enzyme inhibition entry is “inactive”.
